In PubChem BioAssay (NCI):
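A five-concentration, 48-hour dose response in 96-well plates underlies each endpoint, interpolated linearly between surrounding concentrations. Abbreviation: GI50, concentration required for 50% inhibition of growth. TGI: total growth inhibition.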

Key:
Test in all cases: NCI-60 cell line screen, 48 h
[1] = system: HCT-116 colon
[2] = system: EKVX NSCLC
[3] = system: T-47D breast
[4] = system: SNB-19 CNS
[5] = system: SK-MEL-2 melanoma
[6] = system: ACHN renal
[7] = system: HCT-15 colon
[8] = system: NCI-H23 lung
[9] = system: RPMI-8226 leukemia
[10] = system: HOP-92 NSCLC

Row | Structure (SMILES) | TGI [1] | TGI [2] | TGI [3] | TGI [4] | TGI [5] | TGI [6] | TGI [7] | TGI [8] | TGI [9] | GI50 [1] | GI50 [2] | GI50 [3] | GI50 [10] | TGI [10] | GI50 [4] | GI50 [5] | GI50 [6] | GI50 [7] | GI50 [8] | GI50 [9]
1 | CCCCCC/C=C\CCCCCCCCCc1cccc(OC)c1O | > 100 µM | > 100 µM | > 100 µM | > 100 µM | > 100 µM | > 100 µM | > 100 µM | > 100 µM | > 100 µM | – | – | – | – | – | – | – | – | – | – | –
2 | COc1cc2c3c(n(CCCN=[N+]=[N-])c(=O)c2cc1OC)-c1ccc(NC(C)=O)cc1C3=O | > 50 µM | > 50 µM | > 50 µM | > 50 µM | > 50 µM | > 50 µM | > 50 µM | > 50 µM | > 50 µM | > 50 µM | > 50 µM | > 50 µM | > 50 µM | > 50 µM | > 50 µM | > 50 µM | > 50 µM | > 50 µM | > 50 µM | > 50 µM
3 | O=C1c2ccccc2-c2c1c1ccc([N+](=O)[O-])cc1c(=O)n2CCN1CCOCC1 | > 100 µM | > 100 µM | > 100 µM | > 100 µM | > 100 µM | > 100 µM | > 100 µM | > 100 µM | > 100 µM | > 100 µM | > 100 µM | 78.4 µM | 26.2 µM | > 100 µM | 79.2 µM | > 100 µM | 33.4 µM | > 100 µM | > 100 µM | 35.7 µM
4 | COc1ccccc1C(=O)Nc1ccc(Cl)c(C(=O)OC(C)C)c1 | > 95 µM | > 100 µM | 60.1 µM | > 100 µM | > 76.8 µM | 28.4 µM | > 100 µM | 28.1 µM | 77.6 µM | – | – | – | – | > 100 µM | – | – | – | – | – | –
5 | COc1ccc2cn3c4ccc(O)cc4[nH]c(=O)c3c2c1 | 1.95 µM | 20.7 µM | 24.1 µM | 18.7 µM | 12.8 µM | 15.9 µM | 13.2 µM | 15.7 µM | 7.93 µM | 0.046 µM | 0.778 µM | 0.573 µM | 11.6 µM | 25.8 µM | 0.206 µM | 0.0602 µM | 0.0762 µM | 0.0438 µM | 0.402 µM | 0.308 µM
6 | O=C(Oc1c(Cl)c(Cl)c(Cl)c(Cl)c1Cl)C1CCCN1C(=O)OCc1ccccc1 (stereo not drawn) | 10.7 µM | – | 11.3 µM | 13.2 µM | 4.49 µM | 8.09 µM | 11.7 µM | 10.1 µM | 6.83 µM | 3.43 µM | – | 2.79 µM | 1.99 µM | 6.1 µM | 3.23 µM | 2.28 µM | 2.62 µM | 3.08 µM | 3.17 µM | 2.45 µM
7 | Cn1c(=S)c2[nH]c(SCc3cccnc3)nc2n(C)c1=O | > 100 µM | > 100 µM | > 100 µM | > 100 µM | > 100 µM | > 100 µM | > 100 µM | > 100 µM | > 100 µM | – | – | – | – | > 100 µM | – | – | – | – | – | –
8 | CCN(CC)CCC(CNc1c(C)cnc2cc(Cl)ccc12)c1ccc(Cl)c(Cl)c1 (stereo not drawn) | 8.86 µM | 14.2 µM | 7.08 µM | 18 µM | 7.73 µM | 17.5 µM | 10.8 µM | 20.6 µM | 6.49 µM | 1.36 µM | 3.21 µM | 2.22 µM | 1.96 µM | 8.03 µM | 4.79 µM | 2.67 µM | 4.51 µM | 2.23 µM | 5.62 µM | 2.15 µM
9 | COc1ccc(C(=O)c2cc(C)c(OC)c(C)c2)c(OC)c1OC(=O)C(Cl)Cl | > 100 µM | > 100 µM | > 100 µM | > 100 µM | > 100 µM | > 100 µM | > 100 µM | > 100 µM | 27.8 µM | 0.0976 µM | 0.321 µM | 6.37 µM | 0.216 µM | > 92.9 µM | 0.0432 µM | 0.132 µM | 0.0554 µM | 0.0339 µM | 0.0681 µM | 0.0416 µM
10 | CC(=O)OCCC/C(=C/c1cc2ccccc2c2ccccc12)[N+](=O)[O-] | 2.8 µM | 3.67 µM | 1.87 µM | 3.22 µM | 2.98 µM | 3 µM | 2.62 µM | 3.27 µM | 5.74 µM | 1.48 µM | 1.42 µM | 0.384 µM | 1.38 µM | 3.7 µM | 1.66 µM | 1.54 µM | 1.64 µM | 1.3 µM | 1.57 µM | 1.27 µM
11 | COc1cc(NC(=O)c2cc3ccccc3cc2O)c(OC)cc1Cl | 11.1 µM | 5.01 µM | 6.15 µM | 8.21 µM | 6.95 µM | 5.23 µM | 8.4 µM | 7.05 µM | 1.18 µM | 2.48 µM | 1.29 µM | 1.8 µM | 1.56 µM | 4.95 µM | 2.53 µM | 2.74 µM | 1.81 µM | 1.95 µM | 1.59 µM | 0.153 µM
12 | CCN(CC)CCOc1ccccc1-n1c(C)ccc1-c1ccccc1 | 25.8 µM | 33.6 µM | 34.7 µM | 31.9 µM | – | 30.3 µM | 28.2 µM | 29.9 µM | 68.7 µM | 12 µM | 15.8 µM | 15.7 µM | 12.6 µM | 32.8 µM | 15.7 µM | – | 15.5 µM | 12.6 µM | 14.2 µM | 22.9 µM
13 | CC(NNC(=S)N1CCN(c2ccccn2)CC1)c1cccc[n+]1[O-] (stereo not drawn) | 13.7 µM | > 100 µM | > 100 µM | > 100 µM | – | > 100 µM | > 100 µM | > 100 µM | – | – | – | – | – | > 100 µM | – | – | – | – | – | –
14 | CSc1ccc(NC(=O)CCl)cc1 | > 10 µM | > 10 µM | > 10 µM | > 10 µM | 5.1 µM | > 10 µM | > 10 µM | > 10 µM | > 10 µM | – | – | – | – | 8.88 µM | – | – | – | – | – | –
15 | COC(=O)[C@]12CC[C@@H](C)[C@H](C)[C@@H]1C1=CC[C@@H]3[C@@]4(C)C(C=O)=C[C@@](C)(COC(=O)c5ccco5)C4=CC[C@@]3(C)[C@]1(C)CC2 | 6.47 µM | 9.17 µM | 38.2 µM | > 100 µM | 0.743 µM | 2.56 µM | 4.09 µM | 25.7 µM | 5.01 µM | 2.2 µM | 2.74 µM | 2.68 µM | 0.671 µM | 7.71 µM | 5.12 µM | 0.273 µM | 0.118 µM | 1.91 µM | 3.25 µM | 1.49 µM
